PMC4211885 (PLoS ONE, 2014)

Columns and labels:
[1] = tested on: CFTR conductance (intracellular cAMP); assay: cAMP detection by whole oocyte (CFTR) conductance in oocytes co-expressing CFTR and OA/TAMac; type: cell-based, Xenopus laevis; conditions: for Increase in cAMP levels (CFTR conductance): OA and TA at 100 µM or 1000 µM
From the text: It is also unlikely that the effects of tyramine at high concentration result from an increase in cAMP. It is common that octopaminergic GPCRs can couple through the canonical Gαs/cAMP pathway so we used co-expression of the Cystic Fibrosis Trans-membrane Conductance Regulator (CFTR) as a means of testing for increases in cAMP (see methods for more detail) [60]–[63].
As a means of detecting rises in intracellular cAMP levels we tested oocytes co-expressing the CFTR channel and OA/TAMac. Heterologously expressed CFTR can be used as an extremely sensitive assay for intracellular cAMP in Xenopus oocytes. CFTR mediates a chloride-selective leak conductance that is activated by increases in intracellular cAMP [63]. Activity of CFTR can thus be used to indicate whether changes in cAMP correspond with ligand application [60]–[62]. Whole oocyte conductance was monitored using a step protocol and calculated from I/V plots. The command voltage was stepped from the holding potential to various levels (−10 mV to −55 mV in −5 mV increments) for 150 ms. The steady state current during each step was plotted against the command voltage and fit to a line using Clampfit 10 software (Fig. S7A). The slope of the line was taken as the conductance. To minimize the magnitude of the holding current between drug applications, oocytes expressing CFTR were typically held at −20 mV which is close to the typical chloride reversal potential. This was confirmed by the fact that the direct-current evoked by forskolin could appear inward or outward at −20 mV. Oocytes expressing either OA/TAMac alone or OA/TAMac and CFTR typically had resting membrane potentials between −20 mV and −30 mV (mean of −26±5 mV calculated from oocytes in Fig. S7) due to increased expression of endogenous chloride currents.
(A) The measurement of whole oocyte conductance was done by plotting steady state current against the command voltage recorded during a step protocol. It is defined as the slope (I/V) of the linear least squares regression line. In the example shown tyramine (TA) causes no apparent change in whole oocyte conductance. Octopamine (OA) causes a small change compared to the adenylate cyclase activator forskolin (FSK). […] These cumulative data are from 20 OA/TAMac and CFTR-injected oocytes and 6 OA/TAMac -only injected oocytes. Conductance was measured as shown in A. Not all compounds were tested in all oocytes. Each response is treated as an independent sample. Concentrations of OA and TA were at 100 µM or 1000 µM, FSK was at 50 µM. Some points obtained at 3 minutes were grouped with the 4 minute responses. (C) The change in conductance (Δg) occurring within oocytes as determined by the difference between baseline and the indicated time points post-application of compound. […]

Uninjected oocytes = assay: Direct-current response of uninjected oocytes (control); type: cell-based, Xenopus laevis; conditions: n = 5
Procedure: We first tested receptor-injected oocytes for the occurrence of a response to biogenic amines. Applications of tyramine, octopamine, or dopamine produced an inward ID, typically ranging between 50 nA and 500 nA, under a constant holding potential of −60 mV. […] The amplitude of tyramine evoked ID at concentrations below 10 µM was greater than octopamine or dopamine within the same oocyte (Figs. 2A and S2). […] Instead it would rise and then begin to decline prior to the removal of agonist (dotted line). However, at high concentrations, above 100 µM, ID appeared to approach a stable plateau (Fig. 2B).
Recordings were performed 1–3 days post-injection at room temperature (20–22°C). Currents were recorded under two-electrode voltage clamp using an Axoclamp 900a amplifier (Molecular Devices LLC, CA USA). A digidata 1440a analog to digital converter was used in conjunction with pCLAMP 10 software (Molecular Devices) for data acquisition and to generate voltage commands. For each step protocol or chemical application data were typically sampled at 5 KHz and filtered digitally at 1 KHz. For the duration of each experiment the current was also continuously sampled at 1 kHz using a separate minidigi 1A digitizer (Molecular Devices). Glass microelectrodes were pulled from filamented 1.2 mm thin wall borosilicate glass (World Precision Instruments, Sarasota, FL) using a Sutter Instruments P-97 puller. They were filled with 3 M KCl and had resistances of 0.8–2.0 MΩ. A silver chloride pellet immersed in 3 M KCl and connected to the bath via a 3% agar bridge made with 3 M KCl was used as the reference electrode.
Supplementary file pone.0111314.s001.tif: Figure S1 Direct-current (ID) responses are specifically evoked by agonists in oocytes injected with OA/TAMac only. […] The trace is representative of an experimental set of 5 oocytes. Additional uninjected oocytes were tested with various experimental sets throughout the course of this study. (B) A typical preliminary test of agonist sensitivity. Injection of OA/TAMac cRNA alone is sufficient to confer sensitivity to OA. […] Applications are approximately 30 seconds in the upper trace. (C) The response of clonidine (CN), synephrine (SN), and OA within a single OA/TAMac injected oocyte. […] All drugs are applied for 30 seconds each as indicated by black rectangles. Agonist evoked currents are measured within oocytes relative to the octopamine response at 50 µM. The comparison is made to OA because the amplitude of the tyramine response becomes small at concentrations above 10 µM. This is due to a mechanistically undefined process not seen with any other agonist we tested. Note that TA is the first compound applied to a naïve oocyte in this example. […] (TIF) Click here for additional data file.

Compound	Increase in cAMP levels (CFTR conductance) [1]	Response of uninjected oocytes (Uninjected oocytes)	Response of uninjected oocytes (Uninjected oocytes; listed as OA)	Mean change in conductance (Δg) within oocytes ([1]; compiled from 12 oocytes, s.d. = 1.72 µS, high conductance outlier excluded) [µS]	Response of uninjected oocytes (Uninjected oocytes; listed as TA)
NCC(O)c1ccc(O)cc1 (racemic) [octopamine, (+/−)-octopamine]	neither octopamine nor tyramine produced significant increases	no response	do not respond		
NCCc1ccc(O)cc1 [tyramine]	neither octopamine nor tyramine produced significant increases	no response		0.30	do not respond
